Reference: patent US10065962B2, “Amino pryan ring derivative and composition and use thereof” (Sichuan Haisco Pharmaceutical Co., Ltd., priority 2014, dated 2018)
Where two headings read alike, the source gives them in different places. Blank lines part the entries; values can stand above or below the compound they belong to.

What was measured:
C57 mice = experiment: Oral glucose tolerance test (OGTT) in mice; format: in vivo; conditions: 10 mg/kg intragastric, glucose 5 g/kg 60 min after administration
Experimental: The oral glucose tolerance test (OGTT) was performed to evaluate the hypoglycemic effect of the compounds of the present invention in mice. 8-week old male C57 mice were purchased from Beijing Vital River Laboratory Animal Technology Co., Ltd. (Laboratory Animal Certificate No. SCXK (Beijing) 2012-0001) and used in the test The mice were grouped based on the base level of blood sugar after fasted, with 10 animals per group. The test compounds were formulated into a 1 mg/ml suspension and administered intragastrically at a dose of 10 mg/kg, while a blank agent was administered to the blank control group. 60 min after the administration, a 50% aqueous solution of glucose was dosed (5 g/kg), and the blood sugar level of each mouse was measured with a OneTouch blood glucose meter manufactured by Johnson & Johnson at 0 min, 15 min, 30 min, 45 min, 60 min, and 120 min.

[1] = Evaluation of pharmacokinetics in rats; format: in vivo; conditions: rat, whole blood, po, male SD rats, 5 mg/kg intragastric; for Cmax: read-out: Blood drug level Cmax; for half-life: read-out: Half-life T1/2 (converted)
Experimental: Male SD rats (purchased from Vital River Laboratory Animal Technology Co. LTD. License No. 11400700005540) each weighing 200 to 240 g were fasted overnight. On the day of experiments, 3 SD rats were each intragastrically administered with 5 mg/kg compound, and a 0.20 ml blood sample was taken from their jugular veins before the administration and 15 min, 30 min, 45 min, 1 h, 2 h, 4 h, 8 h, 12 h, and 24 h after the administration, to an EDTA tube. Acetonitrile containing an internal reference (verapamil 5.00 ng/ml, and glibenclamide 50.0 ng/ml) was added to the blood sample, followed by vigorous vortexing and centrifuging at 13,000 rpm for 10 min. The supernatant was taken for the LC-MS/MS assay. Pharmacokinetics parameters were calculated by using the non-compartment mode in Pharsight Phoenix 6.3.

[2] = Concentration of the compound in monkey plasma by LC-MS/MS; format: in vivo; conditions: male, rhesus monkey, Rhesus monkeys, oral 10.0 mg/kg
Experimental: The laboratory animals were healthy male Rhesus monkeys each weighing about 5 kg, provided by Sichuan Primed Bio-tech Group Co. Ltd. Fasted Rhesus monkeys were grouped based on the body weight. […] For the enzymatic activity assay, 40 μl plasma was taken from each test sample, and 10 μl H-Ala-Pro-AFC substrate (0.2 mM) was added thereto, followed by reaction for 15 min. […] The period during which the inhibition of plasma. DPP-IV enzymatic activity was ≥80% was calculated for the test compounds, and the concentration of the compounds in plasma was measured by LC-MS/MS.

plasma DPP-IV [3] = biological target: plasma DPP-IV (Canis lupus familiaris, UniProt A0A8I3Q2I8); conditions: beagle dogs, oral 10.0 mg/kg, plasma DPP-IV activity
Experimental: The laboratory animals were male beagle dogs provided by Chengdu Dashuo Biological Sciences and Technology Co., Ltd. Fasted beagle dogs were grouped based on the body weight. The test group was orally administrated with the test compounds at a dose of 10.0 mg/kg. Blood samples were taken at various time points after the administration and subjected to anticoagulation with EDTA-2Na. […] Plasma was taken and preserved at −20° C. For the enzymatic activity assay, 40 μl plasma was taken from each test sample, and 10 μl H-Ala-Pro-AFC substrate (0.2 mM) was added thereto, followed by reaction for 15 nm.

DPP-IV = DPP-IV (Mus musculus, UniProt P28843); experiment: Effect of single oral administration on the enzymatic activity of DPP-IV in ob/ob mice; conditions: read-out: DPP-IV enzymatic activity
plasma DPP-IV [4] = biological target: T1, plasma DPP-IV (Rattus norvegicus, UniProt P14740); experiment: Enzymatic screening experiment on plasma DPP-IV in rats; format: in vivo; conditions: SD rats, oral 3.0 mg/kg, plasma DPP-IV activity
T1 construct: from tissue; host or cells: plasma of SD rats
Source text: Fasted rats were grouped based on the body weight.

DPP-IV, sequence (P28843 37-760 limits assumed): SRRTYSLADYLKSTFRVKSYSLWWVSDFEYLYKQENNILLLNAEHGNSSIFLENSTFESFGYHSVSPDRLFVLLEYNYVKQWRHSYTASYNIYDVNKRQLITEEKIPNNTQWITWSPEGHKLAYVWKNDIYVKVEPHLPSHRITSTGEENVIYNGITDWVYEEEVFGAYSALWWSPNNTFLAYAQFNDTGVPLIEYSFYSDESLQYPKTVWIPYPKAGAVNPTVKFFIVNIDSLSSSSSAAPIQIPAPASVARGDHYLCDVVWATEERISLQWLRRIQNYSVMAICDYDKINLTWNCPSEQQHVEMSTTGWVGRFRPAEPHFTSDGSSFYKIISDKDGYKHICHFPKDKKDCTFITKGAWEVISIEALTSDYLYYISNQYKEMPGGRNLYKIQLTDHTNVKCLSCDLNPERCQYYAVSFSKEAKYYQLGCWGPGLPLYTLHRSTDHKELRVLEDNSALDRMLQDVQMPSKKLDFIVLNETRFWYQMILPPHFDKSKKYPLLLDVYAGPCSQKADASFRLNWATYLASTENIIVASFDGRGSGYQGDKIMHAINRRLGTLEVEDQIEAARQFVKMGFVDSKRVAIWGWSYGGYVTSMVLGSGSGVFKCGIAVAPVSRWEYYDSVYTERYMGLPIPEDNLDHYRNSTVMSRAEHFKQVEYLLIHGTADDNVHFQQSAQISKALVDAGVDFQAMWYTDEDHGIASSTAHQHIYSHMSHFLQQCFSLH
T1 sequence (P14740 37-767 limits assumed): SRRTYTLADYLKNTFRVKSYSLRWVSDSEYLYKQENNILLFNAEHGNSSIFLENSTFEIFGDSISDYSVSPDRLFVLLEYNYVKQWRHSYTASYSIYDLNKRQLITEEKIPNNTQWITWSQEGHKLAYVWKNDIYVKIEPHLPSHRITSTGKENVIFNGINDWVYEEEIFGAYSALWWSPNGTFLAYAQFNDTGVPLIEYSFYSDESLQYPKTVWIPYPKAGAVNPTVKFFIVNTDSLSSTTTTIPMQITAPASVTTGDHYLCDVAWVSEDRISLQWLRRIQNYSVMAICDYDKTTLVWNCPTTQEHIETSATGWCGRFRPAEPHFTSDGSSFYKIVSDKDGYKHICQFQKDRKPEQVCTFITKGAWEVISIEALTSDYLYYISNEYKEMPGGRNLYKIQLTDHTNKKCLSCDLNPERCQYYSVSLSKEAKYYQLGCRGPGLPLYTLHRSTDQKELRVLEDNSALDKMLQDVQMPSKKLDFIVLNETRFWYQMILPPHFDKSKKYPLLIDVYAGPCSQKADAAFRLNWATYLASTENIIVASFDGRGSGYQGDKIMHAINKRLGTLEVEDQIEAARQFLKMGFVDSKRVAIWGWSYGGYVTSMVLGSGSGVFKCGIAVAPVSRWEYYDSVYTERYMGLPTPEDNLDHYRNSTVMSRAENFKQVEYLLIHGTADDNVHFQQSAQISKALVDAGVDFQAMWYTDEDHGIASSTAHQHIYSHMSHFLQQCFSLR
plasma DPP-IV (Canis lupus familiaris, UniProt A0A8I3Q2I8), sequence (A0A8I3Q2I8 1-765): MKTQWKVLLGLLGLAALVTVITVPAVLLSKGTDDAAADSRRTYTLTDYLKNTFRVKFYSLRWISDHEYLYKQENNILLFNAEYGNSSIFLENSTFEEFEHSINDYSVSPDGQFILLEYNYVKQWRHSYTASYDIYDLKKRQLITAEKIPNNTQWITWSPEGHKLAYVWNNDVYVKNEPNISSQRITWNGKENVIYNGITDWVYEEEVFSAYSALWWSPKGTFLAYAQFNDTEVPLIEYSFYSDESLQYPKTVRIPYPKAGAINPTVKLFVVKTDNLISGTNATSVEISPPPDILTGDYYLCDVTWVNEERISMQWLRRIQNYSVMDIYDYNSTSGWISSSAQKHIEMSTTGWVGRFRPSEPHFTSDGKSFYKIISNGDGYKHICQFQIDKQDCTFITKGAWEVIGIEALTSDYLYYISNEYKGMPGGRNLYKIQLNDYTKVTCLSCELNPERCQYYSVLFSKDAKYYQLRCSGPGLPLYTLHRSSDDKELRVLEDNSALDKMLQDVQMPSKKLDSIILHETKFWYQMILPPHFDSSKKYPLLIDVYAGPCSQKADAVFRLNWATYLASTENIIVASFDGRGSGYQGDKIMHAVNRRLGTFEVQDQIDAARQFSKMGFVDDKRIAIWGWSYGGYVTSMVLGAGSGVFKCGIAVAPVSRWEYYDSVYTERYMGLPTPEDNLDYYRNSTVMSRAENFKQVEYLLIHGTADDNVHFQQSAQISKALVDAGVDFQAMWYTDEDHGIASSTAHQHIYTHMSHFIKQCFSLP

SMILES: N[C@H]1C[C@@H](N2Cc3cn(S(=O)(=O)C4CC4)nc3C2)[C@@H](C(F)(F)F)O[C@@H]1c1cc(F)ccc1F [Compound 1]
Decrease in AUC (blood sugar, OGTT) (C57 mice): 27.20%

AUC(0-t) [1]: 106000 ng·h/mL
Cmax [1]: 11600 ng/mL
half-life [1]: 426 min
concentration at 0 h ([2]; 0 h): 0 nM
concentration at 0.5 h ([2]; 0.5 h): 270 nM
concentration at 1 h ([2]; 1 h): 1060 nM
concentration at 2 h ([2]; 2 h): 5.64 µM
concentration at 4 h ([2]; 4 h): 2560 nM
concentration at 8 h ([2]; 8 h): 4.22 µM
concentration at 12 h ([2]; 12 h): 4.01 µM
concentration at 24 h ([2]; 24 h): 2930 nM
concentration at 32 h ([2]; 32 h): 2560 nM
concentration at 48 h ([2]; 48 h): 1940 nM
concentration at 56 h ([2]; 56 h): 1280 nM
concentration at 72 h ([2]; 72 h): 1120 nM
concentration at 80 h ([2]; 80 h): 680 nM
concentration at 96 h ([2]; 96 h): 710 nM
concentration at 104 h ([2]; 104 h): 440 nM
concentration at 120 h ([2]; 120 h): 340 nM
concentration at 128 h ([2]; 128 h): 270 nM
concentration at 144 h ([2]; 144 h): 210 nM
concentration at 152 h ([2]; 152 h): 160 nM
concentration at 168 h ([2]; 168 h): 140 nM
concentration at 216 h ([2]; 216 h): 71 nM
concentration at 240 h ([2]; 240 h): 41 nM
concentration at 264 h ([2]; 264 h): 32 nM
SMILES: CS(=O)(=O)n1cc2c(n1)CN([C@@H]1C[C@H](N)[C@@H](c3cc(F)ccc3F)O[C@@H]1C(F)(F)F)C2 [Compound 3, (2R,3S,5R,6S)-2-(2,5-difluorophenyl)-5-(2-(methylsulfonyl)pyrrolo[3,4-c]pyrazol-5(2H,4H,6H)-yl)-6-(trifluoromethyl)tetrahydro-2H-pyran-3-amine]
Decrease in AUC (blood sugar, OGTT) (C57 mice): 27.99%

AUC(0-t) [1]: 66800 ng·h/mL
Cmax [1]: 9290 ng/mL
half-life [1]: 366 min
Duration of Inhibition ≥80% (plasma DPP-IV [3]): 162 h
response vs control in vivo at 30 mg/kg (DPP-IV; 2 h): 5.8%
response vs control in vivo at 30 mg/kg (DPP-IV; 4 h): 5.4%
response vs control in vivo at 30 mg/kg (DPP-IV; 10 h): 5.5%
response vs control in vivo at 30 mg/kg (DPP-IV; 24 h): 30%
response vs control in vivo at 30 mg/kg (DPP-IV; 34 h): 34.5%
response vs control in vivo at 30 mg/kg (DPP-IV; 48 h): 58.1%
response vs control in vivo at 30 mg/kg (DPP-IV; 58 h): 49.9%
response vs control in vivo at 30 mg/kg (DPP-IV; 72 h): 66.7%
Duration of Inhibition ≥70% (plasma DPP-IV [4]): 55 h
SMILES: CS(=O)(=O)n1cc2c(n1)CN([C@H]1CO[C@H](c3cc(F)ccc3F)[C@@H](N)C1)C2 [Omarigliptin]
Decrease in AUC (blood sugar, OGTT) (C57 mice): 22.27%
